Laboratory results taken from patent US10842152B2, “Isothiazolo-based bicycles, processes for their preparation and their use as herbicides and/or plant growth regulators” (Bayer CropScience Aktiengesellschaft, priority 2017, dated 2020).

Experiments:
Nilaparvata lugens = Nilaparvata lugens spray test; assay type: in vivo; settings: application rate 500 g/ha, after 4 days, rice plants
Protocol: (§1) Solvent: 78.0 parts by weight of acetone • • 1.5 parts by weight of dimethylformamide
(§2) Emulsifier: alkylarylpolyglycol ether
(§3) To produce a suitable preparation of active compound, 1 part by weight of active compound is mixed with the stated amount of solvents and is diluted with water, containing an emulsifier concentration of 1000 ppm, to the desired concentration. Further test concentrations are prepared by dilution with emulsifier containing water.
Rice plants (Oryza sativa) are sprayed with a preparation of the active ingredient of the desired concentration and the plants are infested with the brown planthopper (Nilaparvata lugens).
After 4 days mortality in % is determined. 100% means all planthoppers have been killed and 0% means none of the planthoppers have been killed.

Viola tricolor [1] = assay: Herbicidal effect pre-emergence; assay type: in vivo; settings: 320 g/ha, visual grading after ca. 3 weeks vs untreated controls
Method in brief: (§4)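 Pre-emergence: WP or EC formulations applied as aqueous suspension/emulsion with 0.5% additive at 600 l water/ha onto covering soil of freshly sown pots in sandy loam. Greenhouse under optimum conditions; visual damage scored after ca. 3 weeks versus untreated controls (100% = plants died, 0% = as control).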

Amaranthus retroflexus [2] = assay: Herbicidal effect pre-emergence; assay type: in vivo; settings: 320 g/ha, visual grading after ca. 3 weeks vs untreated controls
Method in brief: as §4

Setaria viridis [3] = assay: Herbicidal effect pre-emergence; assay type: in vivo; settings: 320 g/ha, visual grading after ca. 3 weeks vs untreated controls
Method in brief: as §4

MATIN [4] = assay: Herbicidal effect post-emergence; assay type: in vivo, Matricaria inodora; settings: 320 g/ha, visual grading after ca. 3 weeks (Table 7)
Excerpt: Seeds of mono- and dicotyledonous weed plants and crop plants are sown in wood-fiber pots in sandy loam, covered with soil and grown in a greenhouse under controlled growth conditions. 2 to 3 weeks after sowing, the test plants are sprayed in the single-leaf stage. The compounds according to the invention, formulated in form of wettable powders (WP) or as emulsifiable concentrates (EC), are then sprayed onto the green plant parts as aqueous suspension or emulsion, with the addition of 0.5% of an additive, at an application rate of 600 l of water/ha (converted). After the test plants had been in the greenhouse for ca. 3 weeks under optimum growth conditions, the effect of the preparations is assessed visually in comparison with untreated controls (herbicidal effect in percent (%): 100% effect=plants have died off, 0% effect=as control plants).

Viola tricolor [5] = assay: Herbicidal effect post-emergence; assay type: in vivo; settings: 320 g/ha
Method in brief: (§5)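 Greenhouse plants in sandy loam sprayed post-emergence at single-leaf stage (2-3 weeks after sowing) with WP or EC formulations plus 0.5% additive at 600 l water/ha. Damage scored visually after ca. 3 weeks versus untreated controls, 0% (as control) to 100% (dead).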

Stellaria media [6] = assay: Herbicidal effect post-emergence; assay type: in vivo; settings: 320 g/ha, visual grading after ca. 3 weeks (Table 7)
Method in brief: as §5

[7] = system: Polygonum convolvulus (=Fallopia convolvulus); assay: Herbicidal effect post-emergence; assay type: in vivo; settings: 320 g/ha, visual grading after ca. 3 weeks (Table 7)
Method in brief: as §5

Pharbitis purpurea = assay: Herbicidal effect post-emergence; assay type: in vivo; settings: 320 g/ha, visual grading after ca. 3 weeks (Table 7)
Method in brief: as §5

Amaranthus retroflexus [8] = assay: Herbicidal effect post-emergence; assay type: in vivo; settings: 320 g/ha
Method in brief: as §5

Setaria viridis [9] = assay: Herbicidal effect post-emergence; assay type: in vivo; settings: 320 g/ha
Method in brief: as §5

Nezara viridula = Nezara viridula spray test; assay type: in vivo; settings: application rate 500 g/ha, after 4 days, barley plants
Protocol: as §1, §2
To produce a suitable preparation of active compound, 1 part by weight of active compound is mixed with the stated amount of solvent, and the concentrate is diluted with water, containing an emulsifier concentration of 1000 ppm, to the desired concentration. Further test concentrations are prepared by dilution with emulsifier containing water.
Barley plants (Hordeum vulgare) infested with larvae of the southern green stink bug (Nezara viridula) are sprayed with a test solution containing the desired concentration of the active ingredient.
After 4 days mortality in % is determined. 100% means all the stink bugs have been killed; 0% means none of the stink bugs have been killed.

Meloidogyne incognita = Meloidogyne incognita test; assay type: in vivo; settings: application rate 20 ppm, after 14 days, salad seedlings
Protocol: Solvent: 125.0 parts by weight of acetone
To produce a suitable preparation of active compound, 1 part by weight of active compound is mixed with the stated amount of solvent, and the concentrate is diluted with water to the desired concentration.
Vessels are filled with sand, a solution of the active ingredient, a suspension containing eggs and larvae of the southern root-knot nematode (Meloidogyne incognita) and salad seeds. The salad seeds germinate and the seedlings grow. Galls develop in the roots.
After 14 days the nematicidal activity is determined on the basis of the percentage of gall formation. 100% means no galls were found and 0% means the number of galls found on the roots of the treated plants was equal to that in untreated control plants.

Abutilon theophrasti = assay: Herbicidal effect post-emergence; assay type: in vivo; settings: 320 g/ha, visual grading after ca. 3 weeks (Table 8)
Method in brief: as §5

Stellaria media [10] = assay: Herbicidal effect pre-emergence; assay type: in vivo; settings: 320 g/ha, visual grading after ca. 3 weeks vs untreated controls
Method in brief: as §4

Alopecurus myosuroides = assay: Herbicidal effect pre-emergence; assay type: in vivo; settings: 320 g/ha, visual grading after ca. 3 weeks vs untreated controls
Method in brief: as §4

MATIN [11] = assay: Herbicidal effect pre-emergence; assay type: in vivo, Matricaria inodora; settings: 320 g/ha, visual grading after ca. 3 weeks vs untreated controls
Excerpt: Seeds of mono- and dicotyledonous weed plants and crop plants are sown in wood-fiber pots in sandy loam and covered with soil. The compounds according to the invention, formulated in the form of wettable powders (WP) or as emulsifiable concentrates (EC), are then applied to the surface of the covering soil as aqueous suspension or emulsion, with the addition of 0.5% of an additive, at an application rate of 600 l of water/ha (converted).
Following treatment, the pots are placed in a greenhouse and kept under optimum growth conditions for the test plants. The visual grading of the damage to the test plants is carried out after ca. 3 weeks in comparison to untreated controls (herbicidal effect in percent (%): 100% effect=plants have died off, 0% effect=as control plants).

Phaedon cochleariae = Phaedon cochleariae spray test; assay type: in vivo; settings: application rate 500 g/ha, after 7 days, Chinese cabbage leaf disks
Protocol: as §1, §2, §3
Chinese cabbage (Brassica pekinensis) leaf disks are sprayed with a preparation of the active ingredient of the desired concentration. Once dry, the leaf disks are infested with mustard beetle larvae (Phaedon cochleariae).
After 7 days mortality in % is determined. 100% means all beetle larvae have been killed and 0% means none of the beetle larvae have been killed.

[12] = visual grading after ca. 3 weeks (Table 7)
[13] = visual grading after ca. 3 weeks (Table 9)
[14] = visual grading after ca. 3 weeks (Table 8)

| Compound | herbicidal effect VIOTR (Viola tricolor [1]) [%] | herbicidal effect AMARE (Amaranthus retroflexus [2]) [%] | herbicidal effect SETVI (Setaria viridis [3]) [%] | herbicidal effect VIOTR (Viola tricolor [5]; [13]) [%] | herbicidal effect AMARE (Amaranthus retroflexus [8]; [13]) [%] | herbicidal effect SETVI (Setaria viridis [9]; [13]) [%] | nematicidal activity (gall formation) (Meloidogyne incognita) [%] | herbicidal effect VIOTR (Viola tricolor [5]; [14]) [%] | herbicidal effect AMARE (Amaranthus retroflexus [8]; [14]) [%] | herbicidal effect ABUTH (Abutilon theophrasti) [%] | herbicidal effect SETVI (Setaria viridis [9]; [14]) [%] | herbicidal effect STEME (Stellaria media [10]) [%] | herbicidal effect ALOMY (Alopecurus myosuroides) [%] | herbicidal effect MATIN (MATIN [11]) [%] | further results |
| --- | --- | --- | --- | --- | --- | --- | --- | --- | --- | --- | --- | --- | --- | --- | --- |
| Nc1nsc2c1CC(CO)N(CC1CCCCC1)C2=O (stereo not shown) [Example I-007] | 90 | 100 | 80 |  |  |  |  |  |  |  |  |  |  |  | mortality (Nilaparvata lugens): 100%; herbicidal effect MATIN (MATIN [4]): 100%; herbicidal effect VIOTR (Viola tricolor [5]; [12]): 100%; herbicidal effect STEME (Stellaria media [6]): 100%; herbicidal effect POLCO [7]: 100%; herbicidal effect PHBPU (Pharbitis purpurea): 100%; herbicidal effect AMARE (Amaranthus retroflexus [8]; [12]): 100%; herbicidal effect SETVI (Setaria viridis [9]; [12]): 100% |
| CC(=O)Nc1nsc2c(=O)n(CC3CCCCC3)cc(Br)c12 [Example I-102] | 100 | 100 | 100 | 100 | 100 | 100 |  |  |  |  |  |  |  |  | mortality (Nezara viridula): 90% |
| Nc1nsc2c(=O)n(CC3CCCCC3)c(COC3CCCCO3)cc12 (stereo not shown) [Example I-038] |  |  |  |  |  |  | 90 |  |  |  |  |  |  |  |  |
| CCC(=O)OCC1Cc2c(N)nsc2C(=O)N1CC1CCCCC1 (stereo not shown) [Example I-039] | 100 | 100 | 100 |  |  |  |  | 100 | 100 | 100 | 100 |  |  |  |  |
| Nc1nsc2c(=O)n(Cc3cc(F)c(F)cc3F)cc(F)c12 [Example I-163] | 100 | 100 | 100 |  |  |  |  | 90 | 100 | 90 | 90 | 100 | 100 | 100 |  |
| CCC(=O)Nc1nsc2c(=O)n(CC3CCCCC3)cc(Cl)c12 [Example I-083] | 100 | 100 | 100 |  |  |  |  | 100 | 100 | 80 | 100 | 100 | 100 | 100 |  |
| CCC(=O)Nc1nsc2c(=O)n(CC3CCCCC3)cc(Br)c12 [Example I-078] | 100 | 100 | 100 | 80 | 100 | 100 |  |  |  |  |  | 100 | 100 | 100 | mortality (Nezara viridula): 90% |
| CCC(=O)Nc1nsc2c(=O)n(CC3CCCCC3Cl)cc(Cl)c12 (racemic) [Example I-172] | 100 | 100 | 100 |  |  |  |  | 100 | 100 | 100 | 80 | 100 | 100 | 100 |  |
| CCC(=O)N(C(=O)CC)c1nsc2c(=O)n(CC3CCCCC3)c(CO)cc12 [Example I-049] | 90 | 100 | 100 | 100 | 90 | 100 | 90 |  |  |  |  | 100 | 80 | 80 |  |
| CCC(=O)N(C(=O)CC)c1nsc2c(=O)n(CC3CCCCC3)c(COC3CCCCO3)cc12 (stereo not shown) [Example I-042] |  |  |  | 100 | 100 | 90 | 90 |  |  |  |  |  |  |  |  |
| COCC(=O)Nc1nsc2c(=O)n(CC3CCCCC3)cc(Br)c12 [Example I-087] | 100 | 100 | 100 | 100 | 100 | 100 |  |  |  |  |  | 100 | 100 | 90 | mortality (Nilaparvata lugens): 100%; mortality (Nezara viridula): 90% |
| CC(=O)Nc1nsc2c(=O)n(CC3CCCCC3)cc(Cl)c12 [Example I-084] | 100 | 100 | 100 |  |  |  |  | 100 | 100 | 100 | 100 | 100 | 100 | 100 | mortality (Phaedon cochleariae): 83% |
| CC(C)Cc1cc2c(N)nsc2c(=O)n1CC1CCCCC1 [Example I-050] |  |  |  |  |  |  | 90 |  |  |  |  |  |  |  |  |
